According to article PMC13107025 (2025):

What was measured:
[1] = system: dsDNA (DNA, duplex) CAATCGGATCGAATTCGATCCGATTG; experiment: FRET melting (real-time PCR); conditions: 50 mM KCl; Tris-HCl pH 7.4; 1 μM oligonucleotide, EKB 8 eq (8 μM)
[2] = system: k-RAS G4 (DNA, G4) AGGGCGGTGTGGGAAGAGGGAAGAGGGGGAGG; experiment: FRET melting (real-time PCR); conditions: 50 mM KCl; Tris-HCl pH 7.4; 1 μM oligonucleotide, EKB 8 eq (8 μM)
[3] = system: c-KIT G4 (DNA, G4) AGGGAGGGCGCTGGGAGGAGGGG; experiment: FRET melting (real-time PCR); conditions: 50 mM KCl; Tris-HCl pH 7.4; 1 μM oligonucleotide, EKB 8 eq (8 μM)
[4] = system: c-KIT G4 (UV titration) (DNA, G4) AGGGAGGGCGCTGGGAGGAGGGG; experiment: UV-visible absorption titration; conditions: 100 mM KCl; 10 mM Tris-HCl pH 7.4, room temperature; EKB 20 μM, G4:EKB 1:1 to 8:1
[5] = system: Bcl-2 G4 (UV titration) (DNA, G4) CGGGCGGGAGCGCGGCGGGCGGGCGGG; experiment: UV-visible absorption titration; conditions: 100 mM KCl; 10 mM Tris-HCl pH 7.4, room temperature; EKB 20 μM, G4:EKB 1:1 to 8:1
[6] = system: G4 (DNA, G4) GGGGAGGGGCTGGGAGGGCCCGGAGGGGGCTGGGCCGGGGACCCGGGAGGGGTCGGGACGGGGCGGGG; experiment: FRET melting (real-time PCR); conditions: 50 mM KCl; Tris-HCl pH 7.4; 1 μM oligonucleotide, EKB 8 eq (8 μM)
[7] = system: c-Myc G4 (UV titration) (DNA, G4) GCGCTTATGGGGAGGGTGGGGAGGGTGGGGAAGGTGGGGAGGAGAC; experiment: UV-visible absorption titration; conditions: 100 mM KCl; 10 mM Tris-HCl pH 7.4, room temperature; EKB 20 μM, G4:EKB 1:1 to 8:1
[8] = system: c-Myc G4 (DNA, G4) GCGCTTATGGGGAGGGTGGGGAGGGTGGGGAAGGTGGGGAGGAGAC; experiment: FRET melting (real-time PCR); conditions: 50 mM KCl; Tris-HCl pH 7.4; 1 μM oligonucleotide, EKB 8 eq (8 μM)
[9] = system: Bcl-2 G4 (DNA, G4) CGGGCGGGAGCGCGGCGGGCGGGCGGG; experiment: FRET melting (real-time PCR); conditions: 50 mM KCl; Tris-HCl pH 7.4; 1 μM oligonucleotide, EKB 8 eq (8 μM)
[10] = system: k-RAS G4 (UV titration) (DNA, G4) AGGGCGGTGTGGGAAGAGGGAAGAGGGGGAGG; experiment: UV-visible absorption titration; conditions: 100 mM KCl; 10 mM Tris-HCl pH 7.4, room temperature; EKB 20 μM, G4:EKB 1:1 to 8:1

- ΔTm [1]: –1.16 °C
- ΔTm [2]: 3.22 °C
- ΔTm [3]: 4.17 °C
- binding [4]: yes
- binding [5]: yes
- ΔTm [6]: 2.12 °C
- binding [7]: yes
- ΔTm [8]: 3.90 °C
- ΔTm [9]: 7.09 °C
- binding [10]: yes
SMILES: CC(C)=CCc1cc(-c2cc(=O)c3c(O)cc(O)c(CC=C(C)C)c3o2)cc(O)c1O
